≈ marks a conversion by molar mass, not a printed value. Entries after “also recorded” stand apart in the source; their conditions may differ. Read-outs that look alike come from different tables or passages of the source.
How the values were obtained:
[1] = test system: activity-regulated Gln/MeAIB transport (SNAT activity) in hippocampal neurons; assay: Activity-regulated (spontaneous, 4-AP- or K+-stimulated) [14C]-MeAIB transport in primary hippocampal neurons; type: cell-based, rat; parameters: block of transport activity: dose or concentration left out as unconfirmed; settings: for IC50 / inhibition at 10 µM: Rattus norvegicus, Hippocampal neuron; for reduction of activity-regulated Gln/MeAIB transport after preconditioning: brief exposure (KCl 45 mM, Glu or NMDA), transport measured after 24 hr; for inhibition at 10 µM: read-out: block / inhibition of transport activity; for potency to inhibit activity-regulated MeAIB transport relative to a comparator, in words: spontaneous and 4-AP stimulated transport; for Active (annotation beside the compound name: active vs inactive derivatives): Table 1: SKA-41, and active and inactive derivatives
[2] = Max. solubility (Table 1); type: physicochemical
[3] = 4-AP-stimulated (depolarization) [14C]-MeAIB uptake, DIV16, n in brackets, read-out: SNAT Activity IC50, 4-AP
[4] = spontaneous [14C]-MeAIB uptake, DIV 19, n in brackets, read-out: SNAT Activity IC50, Spont
[5] = hippocampal neurons in vitro, 14C-MeAIB 20 μM, read-out: IC50 to inhibit activity-regulated Gln/MeAIB transport

Cc1ccc(-c2nc(N)sc2Br)c2ccccc12
fold difference 4-AP IC50 over Spont IC50 [1]: 4.4 x | IC50 [1, 3]: 4.4 µM | IC50 [1, 4]: 1 µM

Nc1nc(-c2ccc(OC(F)(F)F)cc2)c(Cl)s1
fold difference 4-AP IC50 over Spont IC50 [1]: 1.6 x | IC50 [1, 3]: 7.4 µM | IC50 [1, 4]: 4.6 µM

Cc1ccc(-c2nc(N)sc2Cl)c2ccccc12
fold difference 4-AP IC50 over Spont IC50 [1]: 5.2 x | IC50 [1, 3]: 7.4 µM | IC50 [1, 4]: 1.4 µM

Nc1nc(-c2ccc3ccccc3c2)c(F)s1
fold difference 4-AP IC50 over Spont IC50 [1]: 1.3 x | IC50 [1, 3]: 17.9 µM | IC50 [1, 4]: 13.3 µM

Nc1ccncc1 [4-AP, 4-aminopyridine, reference compound]
maximal stimulation of high-affinity 14C-MeAIB transport ([1]; 200 μM 4-AP): ~2 ×

N[C@@H](CCC(=O)O)C(=O)O [Glu, glutamate]
reduction of activity-regulated Gln/MeAIB transport after preconditioning [1]: ~50%

[Cl-].[K+] [KCl]
reduction of activity-regulated Gln/MeAIB transport after preconditioning [1]: ~50%

CN[C@H](CC(=O)O)C(=O)O [NMDA, N-methyl-D-aspartate, reference compound]
reduction of activity-regulated Gln/MeAIB transport after preconditioning [1]: ~50%

CCCCCCCCCCCCCC(=O)O[C@@H]1[C@@H](C)[C@@]2(O)[C@@H](C=C(CO)C[C@]3(O)C(=O)C(C)=C[C@@H]23)[C@@H]2C(C)(C)[C@]12OC(C)=O [PMA, phorbal myristate acetate, reference compound]
stimulation of 14C-MeAIB transport ([1]; PMA 10 min prior to KCl (60 mM) depolarization): two-fold

Nc1nc(-c2cccc3ccccc23)cs1 [SKA-75, 4-(Naphthalen-1-yl)thiazol-2-amine]
solubility [2]: 25 µM (≈ 5.66 µg/mL) | inhibition at 10 µM [1]: > 50% | inhibition of spontaneous activity-regulated 14C-MeAIB transport, in words ([1]; screens, 10 μM, GABA 2 mM): inhibited spontaneous transport activity | potency to inhibit activity-regulated MeAIB transport relative to a comparator, in words [1]: much less potent than riluzole

Nc1nc(-c2ccc3ccccc3c2)cs1 [SKA-76, 4-(Naphthalen-2-yl)thiazol-2-amine]
solubility [2]: 25 µM (≈ 5.66 µg/mL) | inhibition at 10 µM [1]: > 50% | inhibition of spontaneous activity-regulated 14C-MeAIB transport, in words ([1]; screens, 10 μM, GABA 2 mM): inhibited spontaneous transport activity | potency to inhibit activity-regulated MeAIB transport relative to a comparator, in words [1]: much less potent than riluzole

Nc1nc(-c2ccc(F)cc2)cs1 [SKA-77]
solubility [2]: 100 µM (≈ 19.4 µg/mL)

Nc1nc(-c2ccccc2)cs1 [SKA-78]
solubility [2]: 100 µM (≈ 17.6 µg/mL)

Cc1ccc(-c2csc(N)n2)cc1 [SKA-79]
solubility [2]: 100 µM (≈ 19 µg/mL)

Nc1nc(-c2ccc(Cl)cc2)cs1 [SKA-80]
solubility [2]: 50 µM (≈ 10.5 µg/mL)

Cc1sc(N)nc1-c1ccccc1 [SKA-82]
solubility [2]: 100 µM (≈ 19 µg/mL)

Cc1nc(-c2ccccc2)cs1 [SKA-88]
solubility [2]: 100 µM (≈ 17.5 µg/mL)

Cc1nc(-c2ccccc2)c(C)s1 [SKA-89]
solubility [2]: 100 µM (≈ 18.9 µg/mL) | inhibition of spontaneous activity-regulated 14C-MeAIB transport, in words ([1]; screens, 10 μM, GABA 2 mM): inactive

Nc1nc(-c2ccsc2)cs1 [SKA-94]
solubility [2]: 100 µM (≈ 18.2 µg/mL) | inhibition of spontaneous activity-regulated 14C-MeAIB transport, in words ([1]; screens, 10 μM, GABA 2 mM): inactive

Cc1ccc(-c2csc(N)n2)c2ccccc12 [SKA-190, 4-(4-Methylnaphthalen-1-yl)thiazol-2-amine]
solubility [2]: 50 µM (≈ 12 µg/mL) | block of transport activity [1]: 90% | inhibition at 10 µM [1]: 90% | Active (annotation beside the compound name: active vs inactive derivatives) [1]: SKA-190 Active | inhibition of spontaneous activity-regulated 14C-MeAIB transport, in words ([1]; screens, 10 μM, GABA 2 mM): blocked spontaneous transport activity; also recorded: inhibited spontaneous transport activity

Nc1nc(-c2ccc(-c3csc(N)n3)cc2)cs1 [SKA-230, 4,4′-(1,4-Phenylene)bis(thiazol-2-amine)]
melting point: 350 °C | solubility [2]: 50 µM (≈ 13.7 µg/mL)

Nc1nc(-c2ccc(-c3ccccc3)cc2)cs1 [SKA-232]
solubility [2]: 50 µM (≈ 12.6 µg/mL)

Cc1sc(N)nc1-c1ccc(C)c2ccccc12 [SKA-247, 5-Methyl-4-(4-methylnaphthalen-1-yl)thiazol-2-amine]
solubility [2]: 50 µM (≈ 12.7 µg/mL) | block of transport activity [1]: 90% | inhibition at 10 µM [1]: 90% | IC50 [1, 5]: ~2 µM | Active (annotation beside the compound name: active vs inactive derivatives) [1]: SKA-247 Active | inhibition of spontaneous activity-regulated 14C-MeAIB transport, in words ([1]; screens, 10 μM, GABA 2 mM): blocked spontaneous transport activity; also recorded: inhibited spontaneous transport activity

FC(F)(F)c1cccc(Nc2nc(-c3cccc4ccccc34)cs2)c1 [SKA-251, 4-(Naphthalen-1-yl)-N-(3-(trifluoromethyl)phenyl)thiazol-2-amine]
melting point: 135 °C | solubility [2]: 10 µM (≈ 3.7 µg/mL)

Nc1nc(-c2ccc(-c3ccc(-c4csc(N)n4)cc3)cc2)cs1 [SKA-255]
solubility [2]: 10 µM (≈ 3.5 µg/mL)

Clc1ccc(Nc2nc(-c3cccc4ccccc34)cs2)cc1Cl [SKA-257, N-(3,4-Dichlorophenyl)-4-(naphthalen-1-yl)thiazol-2-amine]
melting point: 243 to 244 °C | solubility [2]: 10 µM (≈ 3.71 µg/mL)

c1ccc(Nc2nc(-c3cccc4ccccc34)cs2)nc1 [SKA-258, 4-(Naphthalen-1-yl)-N-(pyridin-2-yl)thiazol-2-amine]
melting point: 225 °C | solubility [2]: 10 µM (≈ 3.03 µg/mL)

Cc1ccc(-c2csc(Nc3cccc(C(F)(F)F)c3)n2)cc1 [SKA-260, 4-(p-Tolyl)-N-(3-(trifluoromethyl)phenyl)thiazol-2-amine]
melting point: 108 °C | solubility [2]: 10 µM (≈ 3.34 µg/mL)

c1ccc(-c2csc(Nc3ccccn3)n2)cc1 [SKA-265, 4-Phenyl-N-(pyridin-2-yl)thiazol-2-amine]
solubility [2]: 50 µM (≈ 12.7 µg/mL)

FC(F)(F)c1ccc(Nc2nc(-c3ccccc3)cs2)cc1 [SKA-268, 4-Phenyl-N-(4-(trifluoromethyl)phenyl)thiazol-2-amine]
melting point: 153 °C | solubility [2]: 10 µM (≈ 3.2 µg/mL)

Cc1ccc(-c2csc(Nc3ccc(C(F)(F)F)cc3)n2)cc1 [SKA-269, 4-(p-Tolyl)-N-(4-(trifluoromethyl)phenyl)thiazol-2-amine]
melting point: 155 °C | solubility [2]: 10 µM (≈ 3.34 µg/mL)

c1ccc(Nc2nc(-c3ccccc3)cs2)cc1 [SKA-292, N,4-Diphenylthiazol-2-amine]
melting point: 135 to 137 °C | solubility [2]: 25 µM (≈ 6.31 µg/mL)

Nc1nc(-c2ccc3ccccc3c2)c(Cl)s1 [SKA-379, 5-Chloro-4-(naphthalen-2-yl)thiazol-2-amine]
potency to inhibit activity-regulated MeAIB transport relative to a comparator, in words [1]: as active as SKA-219 and SKA-220, respectively

Cc1ccc(-c2csc(N)n2)c2ccccc12 [drawing 63]
fold difference 4-AP IC50 over Spont IC50 [1]: 4.5 x | IC50 [1, 3]: 11.7 µM | IC50 [1, 4]: 2.6 µM

Nc1nc(-c2cccc3ccccc23)c(Cl)s1 [drawing 70]
fold difference 4-AP IC50 over Spont IC50 [1]: 4.3 x | IC50 [1, 3]: 5.2 µM | IC50 [1, 4]: 1.2 µM

Nc1nc(-c2ccc3ccccc3c2)c(Cl)s1 [drawing 71]
fold difference 4-AP IC50 over Spont IC50 [1]: 1.5 x | IC50 [1, 3]: 9.3 µM | IC50 [1, 4]: 6.2 µM

Nc1nnc(-c2cccc(Cl)c2Cl)c(N)n1 [lamotrigine, reference compound]
IC50 [1, 5]: 20 µM

O=C1NC(=O)C(c2ccccc2)(c2ccccc2)N1 [phenytoin, reference compound]
potency of riluzole relative to phenytoin to inhibit activity-regulated Gln/MeAIB transport [1]: 50 × | IC50 [1, 5]: 57 µM

CN[C@@H]1C[C@H]2O[C@@](C)([C@@H]1OC)n1c3ccccc3c3c4c(c5c6ccccc6n2c5c31)C(=O)NC4 [staurosporine, reference compound]
effect on PMA stimulation of 14C-MeAIB transport ([1]; staurosporine 200 nM): abolished

COc1ccc(CCN(C)CCCC(C#N)(c2ccc(OC)c(OC)c2)C(C)C)cc1OC (centres unmarked) [verapamil, reference compound]
inhibition of spontaneous activity-regulated 14C-MeAIB transport, in words [1]: blocked
